Reference: patent US20040067998A1, “Antifungal and/or antiparasitic pharmaceutical composition and novel indole derivatives as active principle of such a composition” (priority 2003, published 2004)
In brackets after ≈: the same amount, converted by molar mass. Several values for one entry are separate records, joined by “and”; a condition that tells them apart may be missing. Equal values may be shown once. Read-outs that look alike come from different tables or passages of the source.

How the values were obtained:
Type in all cases: cell-based
[1] = test system: Candida albicans (strain n° CA980001); assay: Antifungal activity on a clinical strain of Candida albicans (MTT colorimetric microplate test); conditions: for MIC / CMI or CI80 Candida albicans (CA980001): strain CA980001; for MIC: read-out: CMI or CI80 Candida albicans (CA980001)
[2] = test system: Aspergillus fumigatus (strain n°AF 980003); assay: Antifungal activity on a clinical strain of Aspergillus fumigatus (Alamar Blue microplate test); conditions: for MIC / CMI or CI80 Aspergillus fumigatus (AF980003): strain AF980003; for MIC: read-out: CMI or CI80 Aspergillus fumigatus (AF980003); for activity against Aspergillus fumigatus (in words): summary of Tables 27 to 40
[3] = test system: promastigote stage of Leishmania mexicana; assay: Antiparasitic activity on the promastigote form of Leishmania (MTT); conditions: for IC50: read-out: CI50 Leishmania mexicana Promastigotes
[4] = Candida albicans, 24 h at 37° C., MTT
[5] = Aspergillus fumigatus, Alamar Blue
[6] = Leishmania mexicana, promastigotes, 36 h at 26° C., MTT
[7] = promastigotes, 36 h at 26° C., MTT

CCn1ccc2cc(C(c3ccc(Cl)cc3)n3ccnc3)ccc21 (centres unmarked) [Cpsé 53, 5-[(4-Chlorophenyl)(1H-imidazol-1-yl)methyl]-1-ethyl-1H-indole]
MIC [1, 4]: > 100 µM
MIC [2, 5]: > 100 µM
IC50 [3, 6]: > 100 µM

Fc1ccc(C(C(n2ccc3ccccc32)n2nnc3ccccc32)n2ccnc2)cc1 (centres unmarked) [Cpsé 83, 1-[2-(4-Fluorophenyl)-2-(1H-imidazol-1-yl)-1-(benzotriazol-1-yl)ethyl]-1H-indole]
MIC ([1]; Candida albicans, 24 h): 66 ± 6 µM (≈ 27.9 µg/mL)
CMI or CI80 Candida albicans (CA980001) ([1]; listed as 46): 26 ± 2 µg/mL
MIC ([2]; Aspergillus fumigatus): > 100 µM
IC50 ([3]; Leishmania mexicana): 14 µg/mL and 35 µM

Fc1ccc(Cn2cc(Cn3ccnc3)c3cccnc32)cc1 [Cpsé 88, 1-(4-Fluorobenzyl)-3-(1H-Imidazol-1ylmethyl)-1H-7-azaindole]
MIC [1, 4]: 0.7 ± 0.01 µM (≈ 0.214 µg/mL)
CMI or CI80 Candida albicans (CA980001) ([1]; 24 h at 37° C., MTT, listed as 51): 0.28 ± 0.01 µg/mL
activity of inhibition of Candida albicans (in words) ([1]; summary of Tables 27 to 40): most active
MIC [2, 5]: > 100 µM
IC50 [3, 6]: 16.6 µM and 6.64 µg/mL

Fc1cccc(Cn2cc(Cn3ccnc3)c3ccccc32)c1 [compound 5]
CMI or CI80 Candida albicans (CA980001) ([1]; 24 h at 37° C., MTT): 68 ± 1 μM and 20.76 ± 1 μg/ml
CMI or CI80 Aspergillus fumigatus (AF980003) ([2]; Alamar Blue): 46 ± 5 μM and 14 ± 1.5 μg/ml
activity against Aspergillus fumigatus (in words) [2]: strong activity
CI50 Leishmania mexicana Promastigotes [3, 7]: 9.2 ± 0.7 µg/mL (≈ 30.1 µM)
IC50 [3, 7]: 30.4 ± 2.5 µM

Fc1ccc(Cn2cc(Cn3ccnc3)c3ccccc32)c(F)c1 [compound 6]
CMI or CI80 Candida albicans (CA980001) ([1]; 24 h at 37° C., MTT): 48 ± 4 μM and 16 ± 2 μg/ml
CMI or CI80 Aspergillus fumigatus (AF980003) ([2]; Alamar Blue): 60 ± 2 μM and 19.4 ± 2 μg/ml
activity against Aspergillus fumigatus (in words) [2]: strong activity
CI50 Leishmania mexicana Promastigotes [3, 7]: 6 ± 0.5 µg/mL (≈ 18.6 µM)
IC50 [3, 7]: 18.5 ± 1.8 µM

Fc1ccccc1Cn1cc(Cn2ccnc2)c2cc(Br)ccc21 [compound 11]
MIC ([1]; 24 h at 37° C., MTT): >100 µM
MIC ([2]; Alamar Blue): >100 µM
CI50 Leishmania mexicana Promastigotes [3]: 18.3 ± 0.6 µg/mL (≈ 47.6 µM)
IC50 [3]: 47.7 ± 1.6 µM

Fc1ccc(Cn2cc(Cn3ccnc3)c3cc(Br)ccc32)cc1 [compound 12]
MIC ([1]; 24 h at 37° C., MTT): >100 µM
MIC ([2]; Alamar Blue): >100 µM
CI50 Leishmania mexicana Promastigotes [3]: 7.9 ± 0.9 µg/mL (≈ 20.6 µM)
IC50 [3]: 20.6 ± 2.4 µM

Clc1ccc(Cn2cc(Cn3ccnc3)c3cc(Cl)ccc32)cc1 [compound 14]
CMI or CI80 Candida albicans (CA980001) ([1]; 24 h at 37° C., MTT): 30 µg/mL
MIC ([1]; 24 h at 37° C., MTT): 85 µM (≈ 30.3 µg/mL)
CMI or CI80 Aspergillus fumigatus (AF980003) ([2]; Alamar Blue): 71 ± 3 μM and 25 ± 1 μg/ml
CI50 Leishmania mexicana Promastigotes [3]: non linear

Fc1ccc2c(c1)c(Cn1ccnc1)cn2Cc1ccc(Cl)cc1 [compound 15]
CMI or CI80 Candida albicans (CA980001) ([1]; 24 h at 37° C., MTT): 21 ± 1 μM and 7 ± 1 μg/ml
CMI or CI80 Aspergillus fumigatus (AF980003) ([2]; Alamar Blue): 61 ± 3 μM and 20.73 ± 3 μg/ml
activity against Aspergillus fumigatus (in words) [2]: strong activity
CI50 Leishmania mexicana Promastigotes [3, 7]: 5.4 ± 1.6 µg/mL (≈ 15.9 µM)
IC50 [3, 7]: 15.9 ± 5 µM

Fc1ccccc1Cn1cc(Cn2cncn2)c2cc(Br)ccc21 [compound 24]
MIC ([1]; 24 h at 37° C., MTT): >100 µM
MIC ([2]; Alamar Blue): >100 µM
CI50 Leishmania mexicana Promastigotes [3]: 30.74 µg/mL (≈ 79.8 µM)
IC50 [3]: 79.8 µM

Fc1ccc(Cn2cc(Cn3cncn3)c3cc(Br)ccc32)cc1 [compound 25]
MIC ([1]; 24 h at 37° C., MTT): >100 µM
MIC ([2]; Alamar Blue): >100 µM
CI50 Leishmania mexicana Promastigotes [3]: 19.38 µg/mL (≈ 50.3 µM)
IC50 [3]: 50.3 µM

CCn1c(C(c2cccc(Cl)c2)n2ccnc2)c(C)c2cc(Br)ccc21 (centres unmarked) [compound 32]
CMI or CI80 Candida albicans (CA980001) [1]: 62 ± 1 μM and 27 ± 0.5 μg/mL
CMI or CI80 Aspergillus fumigatus (AF980003) [2]: 66 ± 5 μM and 28 ± 2 μg/mL
activity against Leishmania mexicana (in words) [3]: most active
IC50 [3]: < 0.1 µM

CCn1c(C(c2ccc(Cl)cc2)n2ccnc2)c(C)c2cc(Br)ccc21 (centres unmarked) [compound 33]
CMI or CI80 Candida albicans (CA980001) [1]: 59 ± 1 μM and 25 ± 0.5 μg/mL
CMI or CI80 Aspergillus fumigatus (AF980003) [2]: 56 ± 3 μM and 24 ± 1 μg/mL
activity against Aspergillus fumigatus (in words) [2]: strong activity
activity against Leishmania mexicana (in words) [3]: strong activity
CI50 Leishmania mexicana Promastigotes ([3]; promastigotes): 2.87 ± 2 µg/mL (≈ 6.69 µM)
IC50 ([3]; promastigotes): 6.7 ± 2.1 µM

CCn1c(C(c2ccc(Cl)cc2Cl)n2ccnc2)c(C)c2cc(Br)ccc21 (centres unmarked) [compound 34]
CMI or CI80 Candida albicans (CA980001) [1]: 48 ± 0.5 μM and 22 ± 0.5 μg/mL
MIC [2]: >100 µM
CI50 Leishmania mexicana Promastigotes [3]: 1.99 ± 0.04 µg/mL (≈ 4.3 µM)
activity against Leishmania mexicana (in words) [3]: strong activity
IC50 [3]: 4.28 ± 0.1 µM
